The text below walks through data of patent US20200048308A1, “INFLUENZA VIRUS NE[…]” (priority 2016, published 2020).

Test [1] concerns the target H1/Nca HA (biotinylated full length trimeric HA, A/New Caledonia/20/1999) (Influenza A virus, UniProt Q6WG00). Briefly: AlphaLISA competition assay with HB80.4, H1/NCa HA. The test is classed as binding, influenza A virus H1N1 A/New Caledonia/20/1999. An excerpt:
(§1) Binding competition studies were designed to test compounds of the invention for competition with other well characterized HA binding proteins (such as e.g. CR9114, CR6261 and HB80.4) with known epitopes on HA. The epitopes where either located at the stem of the HA (viral membrane proximal part of HA) or, for control purposes, at the head of HA (viral membrane distal part of HA). If competition was observed, it was assumed that both molecules bind to a similar or at least overlapping epitope at the surface of HA. Competition with a HA head- and stem-binder was interpreted as unspecific binding.
(§2) Hereto an AlphaLISA competition assay (Perkin Elmer) was established which relied on biotinylated full length and trimeric HA proteins (Protein Sciences, 10 μL, 0.5 nM final concentration in 50 μL) bound by HA-specific binders. The interaction between HA and the binder was detected after 1 h incubation at room temperature (RT) with two beads, a streptavidin donor bead recognizing HA (10 μL of 10 μg/mL) and an anti Fc bead (10 μg/mL) recognizing the IgGs used. If after an additional hour of incubation at RT the excited donor bead (680 nm) and acceptor bead are in close proximity, an energy transfer (singlet oxygen) can be measured as a luminescence signal of the acceptor bead (Perkin Elmer EnVision plate reader). The signal intensity in this homogeneous assay format is directly proportional to the binding strength (affinity/avidity) between both binding partners.
A general note: Bead proximity is the source of the signal in Alpha formats.

The test system of test [2] is influenza virus A/New Caledonia (H1). The test can be described thus: Virus neutralization assay (VNA) on Calu-3 cells. The test is classed as cell-based, influenza A virus H1N1 A/New Caledonia/20/1999. To be noted: Calu-3 cells, 5 TCID50/50 μL virus, 4 days, NP ELISA readout.
Test [3] has as its target H1/Cal HA (biotinylated full length trimeric HA, A/California/07/2009) (Influenza A virus, UniProt C3W5X2). Briefly: AlphaLISA competition assay with HB80.4, H1/Cal HA. The test is classed as binding, influenza A virus H1N1 A/California/07/2009.
Text: as §1, §2

Where [4] appears, read: ALC_H1_NCa_HB80.4 calculated pIC50, AlphaLISA competition with HB80.4 on H1 NCa HA, 0.5 nM HA.

Usually IC50 stands for the midpoint of a concentration-inhibition curve. Take `CSCC[C@@H]1NC(=O)CNC(=O)CNC(=O)[C@H](C)NC(=O)[C@H](C(C)C)NC(=O)CNC(=O)[C@H](CC(C)C)NC(=O)[C@@H]2CCCN2C(=O)[C@H](CC(=O)O)NC(=O)[C@H](CCCNC(=N)N)NC(=O)[C@H](Cc2ccc(O)cc2)NC(=O)[C@H](CC(C)C)NC(=O)[C@@H](NC(=O)CCC(=O)O)CSSC[C@@H](C(N)=O)NC(=O)CNC1=O` [CP141076, Suc-Cys-Leu-Tyr-Arg-Asp-Pro-Leu-Gly-Val-Ala-Gly-Gly-Met-Gly-Cys-NH2]: the IC50 is 126 nM in test [1] (setting [4]) and 100 nM in test [3]. Also, in test [2], the “VNA_H1_NCa_Calu3 pIC50” value stood at 6.0.

As for `CSCC[C@@H]1NC(=O)CNC(=O)CNC(=O)[C@H](C)NC(=O)[C@H](C(C)C)NC(=O)CNC(=O)[C@H](CC(C)C)NC(=O)[C@@H]2CCCN2C(=O)[C@H](CC(=O)O)NC(=O)[C@H](CCC(=O)O)NC(=O)[C@H](Cc2ccc(O)cc2)NC(=O)[C@H](CC(C)C)NC(=O)[C@H](CO)NC(=O)[C@H](C(C)C)NC(=O)[C@@H]2CCCN2C(=O)[C@H]2CCCN2C(=O)[C@H](Cc2ccc(O)cc2)NC(=O)[C@H](C(C)C)NC(=O)CNC1=O` [CP141085, Pro-Val-Ser-Leu-Tyr-Glu-Asp-Pro-Leu-Gly-Val-Ala-Gly-Gly-Met-Gly-Val-Tyr-D-Pro], the IC50 in test [1] (setting [4]) is 12.6 nM; in test [1] (IC50 in the alphalisa assay, best compound, strain not stated in text (matches pIC50 7.9 on H1 NCa)), 13 nM; in test [3], 15.8 nM. Moreover, the “VNA_H1_NCa_Calu3 pIC50” value in test [2] stood at 5.9.

On to `CSCC[C@@H]1NC(=O)CNC(=O)CNC(=O)[C@H](C)NC(=O)[C@H](C(C)C)NC(=O)CNC(=O)[C@H](CC(C)C)NC(=O)[C@@H]2CCCN2C(=O)[C@H](CC(=O)O)NC(=O)[C@H](CCC(=O)O)NC(=O)[C@H](Cc2ccc(O)cc2)NC(=O)[C@H](CC(C)C)NC(=O)[C@@H]2CCCN2C(=O)[C@H]2CCCN2C(=O)CNC1=O` [CP141086, Pro-Leu-Tyr-Glu-Asp-Pro-Leu-Gly-Val-Ala-Gly-Gly-Met-Gly-D-Pro], for which the half-inhibitory concentration (IC50) in test [1] (setting [4]) is 200 nM; in test [3] it was 1580 nM. The “VNA_H1_NCa_Calu3 pIC50” value in test [2] worked out at 4.6.

Regarding `CSCC[C@@H]1NC(=O)CNC(=O)CNC(=O)[C@H](C)NC(=O)[C@H](C(C)C)NC(=O)CNC(=O)[C@H](CC(C)C)NC(=O)[C@@H]2CCCN2C(=O)[C@H](CC(=O)O)NC(=O)[C@H](CCC(=O)O)NC(=O)[C@H](Cc2ccc(O)cc2)NC(=O)[C@H](CC(C)C)NC(=O)[C@H](CO)NC(=O)[C@H](C(C)C)NC(=O)CNC(=O)[C@H]2CCCN2C(=O)[C@H](Cc2ccc(O)cc2)NC(=O)[C@H](C(C)C)NC(=O)CNC1=O` [CP141082, Gly-Val-Ser-Leu-Tyr-Glu-Asp-Pro-Leu-Gly-Val-Ala-Gly-Gly-Met-Gly-Val-Tyr-D-Pro], the IC50 in test [1] (setting [4]) and in test [3] was 20 nM in each case. Besides, the “VNA_H1_NCa_Calu3 pIC50” value in test [2] turned out to be 4.3.
